This is an account of results in US20200405752A1, “ANTITUMOR AGENT, ANTITUMOR EFFECT ENHANCER, AND ANTITUMOR KIT” (FUJIFILM Corporation, priority 2018, published 2020).

For orientation: viability means a read-out of living cells in per cent, often relative to untreated cells. In general, IC50 refers to the concentration at which inhibition is half-maximal.

A value given as a limit tells only on which side of the number the result lay.

The experiment relates to human cholangiocarcinoma-derived cell line HuCC-T1. As to the kind of experiment: Cell viability (CellTiter Glo) of HuCC-T1 in combination with cisplatin. It is filed as cell-based. The following applies: for viability at 0.0015 µM / viability at 0.0046 µM / viability at 0.0137 µM / viability at 0.0412 µM / viability at 0.1235 µM / viability at 0.3704 µM / viability at 1.1111 µM / viability at 3.3333 µM / viability at 10 µM / IC50: Homo sapiens; for viability at 0.0015 µM / viability at 0.0046 µM / viability at 0.0137 µM / viability at 0.0412 µM / viability at 0.1235 µM / viability at 0.3704 µM / viability at 1.1111 µM / viability at 3.3333 µM / viability at 10 µM: HuCCT-1, 72 h, with cisplatin 10 μmol/L, 3 days; for viability at 0.0015 µM: test substance 1.5 nM; for viability at 0.0046 µM: test substance 4.6 nM; for viability at 0.0137 µM: test substance 13.7 nM; for viability at 0.0412 µM: test substance 41.2 nM; for viability at 0.1235 µM: test substance 123.5 nM; for viability at 0.3704 µM: test substance 370.4 nM; for viability at 1.1111 µM: test substance 1111.1 nM; for viability at 3.3333 µM: test substance 3333.3 nM; for viability at 10 µM: test substance 10000.0 nM; for IC50: HuCCT-1, used in combination with cisplatin (10 μmol/L, Table 8); for CI: combination with cisplatin. From the text: On the combinational effect of the embodiment of the invention, the results of evaluation using a combination index (CI) which is a quantitative index of the combinational effect are shown. The CI can be calculated by the following equation according to Cancer Research, 2010, Vol. 70, pp. 440 to 446.
That is, in a case where the drugs to be used in combination are drug 1 and drug 2, the CI at a certain drug concentration is
CI={(cell viability in case of using drug 1 and drug 2 in combination)/100}/{[(cell viability in case of using drug 1)/100]×[(cell viability in case of using drug 2)/100]}
Evaluation of antitumor activity against human cholangiocarcinoma-derived cell line HuCC-T1 in combination with cisplatin
Furthermore, the antitumor activity against the human cholangiocarcinoma-derived cell line HuCC-T1 in combination with cisplatin was evaluated in the same manner as in Test Example 1.
Gemcitabine, cisplatin, and methanesulfonate of Compound A were used as test substances.
Gemcitabine hydrochloride (manufactured by Plantex Co., Ltd.) dissolved in DMSO was used as gemcitabine. Cisplatin (Cat. #039-20091, manufactured by Wako Pure Chemical Industries, Ltd.) dissolved in serum-free RPMI-1640 medium (Cat. #11875-119, manufactured by Thermo Fisher Scientific Inc.) was used as cisplatin.
Human cholangiocarcinoma cell line HuCC-T1 cells were subcultured in RPMI-1640 medium supplemented with 10% serum (Cat. #10437-028, manufactured by Thermo Fisher Scientific Inc.). During this test, all cell cultures were carried out in a CO2 incubator (set to 37° C. and 5% CO2, saturated with water vapor). The culture was diluted with a 10% serum-supplemented medium to a cell density of 15000 cells/well/100 μL and the cells were seeded on a 96-well plate. On the next day, the culture supernatant of each well was discarded, followed by washing twice with 150 μL of serum-free medium, and 100 μL of serum-free medium was added thereto, followed by culturing for 3 days.
The methanesulfonate of Compound A and gemcitabine were dissolved in DMSO to prepare […] DMSO solutions thereof. The thus-prepared DMSO solutions were diluted sequentially with DMSO to prepare DMSO solutions having a final treatment concentration of 1000-fold dilution. Cisplatin was dissolved in serum-free medium to prepare a cisplatin solution 60 μmol/L. The DMSO diluted solutions of Compound A and gemcitabine were diluted with the cisplatin solution (60 μmol/L) to prepare treatment liquids having a final treatment concentration of 6-fold dilution. Compound A and gemcitabine were used with a maximum concentration of 10 μmol/L at a common ratio of 1/3 and 9 concentrations in combination with cisplatin.
20 μL of Compound A or gemcitabine diluted with the cisplatin solution (60 μmol/L) was added to each well. In addition, a group in which only a solvent containing no drug was added to wells in which cells were seeded (positive control), and a group in which only a solvent containing no drug was added to wells containing only a medium (negative control) were provided. All groups were set to n=3 well.
The cells were cultured for 3 days after the addition of the drug, and the cell viability was evaluated using a CellTiter Glo (registered trademark) Reagent (Cat. #G7570, manufactured by Promega Corporation) with the intracellular ATP level as an index. The concentration that inhibits cell viability by 50% (IC50 value) was calculated using XLFit software Ver.3 (registered trademark, manufactured by CTC Laboratory Systems Corporation).
The cell viability of each well was determined with the luminescence signal level of the negative control being 0% cell viability and the luminescence signal level of the positive control being 100% cell viability. The average value and standard deviation of the cell viability of each treatment group were calculated to prepare Table 8.
A general note: In ATP-based viability assays light output follows the ATP content of the culture.

For `Nc1ccn([C@@H]2O[C@H](CO)[C@@H](O)C2(F)F)c(=O)n1` [Gemcitabine], the viability at 0.0015 µM came to 114%, the viability at 0.0046 µM was found to be 113%, the viability at 0.0137 µM was determined as 116% and the viability at 0.0412 µM worked out at 113%. Moreover, the viability at 0.1235 µM turned out to be 116%, the viability at 0.3704 µM came to 113%, the viability at 1.1111 µM was found to be 103% and the viability at 3.3333 µM is 83%. Moreover, the viability at 10 µM is 56%, the half-maximal inhibitory concentration (IC50) was not below 10000 nM and the CI was 0.90.

Take `Nc1ccn([C@@H]2S[C@H](CO)[C@@H](O)[C@@H]2F)c(=O)n1` [Compound A, 1-(2-deoxy-2-fluoro-4-thio-β-D-arabinofuranosyl)cytosine]: the viability at 0.0015 µM turned out to be 117%, the viability at 0.0046 µM was determined as 114%, the viability at 0.0137 µM was 110% and the viability at 0.0412 µM is 96%. The viability at 0.1235 µM came out at 66%, the viability at 0.3704 µM turned out to be 44%, the viability at 1.1111 µM is 40% and the viability at 3.3333 µM is 36%. For the same compound, the viability at 10 µM was 34%, the IC50 came to 261 nM and the CI came out at 0.34.
